Values of other authors as cited in US11549142B2, “CETP inhibitors for therapeutic use” (Hoffmann-La Roche Inc., priority 2013, dated 2023).

Tested on: patients
Conditions: torcetrapib and atorvastatin concomitantly compared to atorvastatin alone; cited from earlier work

CCOC(=O)N1c2ccc(C(F)(F)F)cc2[C@@H](N(Cc2cc(C(F)(F)F)cc(C(F)(F)F)c2)C(=O)OC)C[C@H]1CC [torcetrapib, (2R,4S)-4-[(3,5-bistrifluoromethylbenzyl)methoxycarbonylamino]-2-ethyl-6-trifluoromethyl-3,4-dihydro-2H-quinoline-1-carboxylic acid ethyl ester]
reason for termination of the Phase III clinical trial: incidence of mortality
